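Dose response: 5 concentrations. Exposure: 48 h. Format: 96-well plates. Endpoint: linear interpolation; highest concentration if not reached. The concentration for 50% growth inhibition is given as GI50. At the TGI there is no net growth.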
Columns and labels:
Experiment in all cases: NCI-60 cell line screen, 48 h
CAKI-1 renal = system: CAKI-1 renal
NCI/ADR-RES ovarian = system: NCI/ADR-RES ovarian
SK-OV-3 ovarian = system: SK-OV-3 ovarian
786-0 renal = system: 786-0 renal
A549 NSCLC = system: A549 NSCLC
ACHN renal = system: ACHN renal
BT-549 breast = system: BT-549 breast
CCRF-CEM leukemia = system: CCRF-CEM leukemia
COLO 205 colon = system: COLO 205 colon
DU-145 prostate = system: DU-145 prostate
EKVX NSCLC = system: EKVX NSCLC
HCC-2998 colon = system: HCC-2998 colon
HCT-116 colon = system: HCT-116 colon
HCT-15 colon = system: HCT-15 colon
HL-60(TB) leukemia = system: HL-60(TB) leukemia
HOP-62 NSCLC = system: HOP-62 NSCLC
HOP-92 NSCLC = system: HOP-92 NSCLC
HS 578T breast = system: HS 578T breast
HT29 colon = system: HT29 colon
IGROV1 ovarian = system: IGROV1 ovarian
KM12 colon = system: KM12 colon
LOX IMVI melanoma = system: LOX IMVI melanoma
M14 melanoma = system: M14 melanoma
MALME-3M melanoma = system: MALME-3M melanoma
MCF7 breast = system: MCF7 breast
MDA-MB-231 breast = system: MDA-MB-231 breast
MDA-MB-435 = system: MDA-MB-435
MOLT-4 leukemia = system: MOLT-4 leukemia
NCI-H226 lung = system: NCI-H226 lung
NCI-H23 lung = system: NCI-H23 lung
NCI-H460 lung = system: NCI-H460 lung
NCI-H522 lung = system: NCI-H522 lung
OVCAR-3 ovarian = system: OVCAR-3 ovarian
OVCAR-4 ovarian = system: OVCAR-4 ovarian
OVCAR-5 ovarian = system: OVCAR-5 ovarian
OVCAR-8 ovarian = system: OVCAR-8 ovarian
PC-3 prostate = system: PC-3 prostate
RPMI-8226 leukemia = system: RPMI-8226 leukemia
RXF 393 renal = system: RXF 393 renal
SF-268 CNS = system: SF-268 CNS
SF-295 CNS = system: SF-295 CNS
SF-539 CNS = system: SF-539 CNS
SK-MEL-2 melanoma = system: SK-MEL-2 melanoma
SK-MEL-28 melanoma = system: SK-MEL-28 melanoma
SN12C renal = system: SN12C renal
SNB-19 CNS = system: SNB-19 CNS
SNB-75 CNS = system: SNB-75 CNS
SR leukemia = system: SR leukemia
T-47D breast = system: T-47D breast
TK-10 renal = system: TK-10 renal
U251 CNS = system: U251 CNS
UACC-257 melanoma = system: UACC-257 melanoma
UACC-62 melanoma = system: UACC-62 melanoma
UO-31 renal = system: UO-31 renal

`Cc1c2c(cc[n+]1Cc1ccc(F)cc1)c1ccc(OCc3cccc(F)c3)cc1n2Cc1cccc(F)c1` showed a GI50 (CAKI-1 renal) of 2020 nM, a TGI (CAKI-1 renal) of 5550 nM and a GI50 (NCI/ADR-RES ovarian) of 8620 nM. For the same compound, the TGI (NCI/ADR-RES ovarian) was greater than 100000 nM, the GI50 (SK-OV-3 ovarian) was 1810 nM and the TGI (SK-OV-3 ovarian) was 3280 nM.
Work on `Clc1ccc2c(c1)N(c1ncnc3ccc(-c4cnc5[nH]ncc5c4)cc13)CC2` yielded a GI50 (786-0 renal) of 689 nM, a TGI (786-0 renal) greater than 100000 nM and a GI50 (A549 NSCLC) of 330 nM. For the same compound, the TGI (A549 NSCLC) was greater than 100000 nM, the GI50 (ACHN renal) was 317 nM and the TGI (ACHN renal) was greater than 100000 nM. For the same compound, the GI50 (BT-549 breast) was 676 nM, the TGI (BT-549 breast) was greater than 100000 nM and the GI50 (CAKI-1 renal) was 316 nM. The TGI (CAKI-1 renal) was greater than 100000 nM, the GI50 (CCRF-CEM leukemia) was 547 nM and the TGI (CCRF-CEM leukemia) was greater than 100000 nM. The GI50 (COLO 205 colon) was 695 nM, the TGI (COLO 205 colon) was greater than 100000 nM and the GI50 (DU-145 prostate) was 351 nM. The TGI (DU-145 prostate) was greater than 100000 nM, the GI50 (EKVX NSCLC) was 338 nM and the TGI (EKVX NSCLC) was greater than 100000 nM. For the same compound, the GI50 (HCC-2998 colon) was 1070 nM, the TGI (HCC-2998 colon) was greater than 100000 nM and the GI50 (HCT-116 colon) was 1150 nM. It also gave a TGI (HCT-116 colon) greater than 100000 nM, a GI50 (HCT-15 colon) of 392 nM and a TGI (HCT-15 colon) greater than 100000 nM. It also gave a GI50 (HL-60(TB) leukemia) of 411 nM, a TGI (HL-60(TB) leukemia) greater than 100000 nM and a GI50 (HOP-62 NSCLC) of 463 nM. The TGI (HOP-62 NSCLC) was greater than 100000 nM, the GI50 (HOP-92 NSCLC) was 169 nM and the TGI (HOP-92 NSCLC) was greater than 100000 nM. It also gave a GI50 (HS 578T breast) of 162 nM, a TGI (HS 578T breast) of 651 nM and a GI50 (HT29 colon) of 344 nM. It also gave a TGI (HT29 colon) greater than 100000 nM, a GI50 (IGROV1 ovarian) of 110 nM and a TGI (IGROV1 ovarian) of 554 nM. For the same compound, the GI50 (KM12 colon) was 3530 nM, the TGI (KM12 colon) was greater than 100000 nM and the GI50 (LOX IMVI melanoma) was 338 nM. It also gave a TGI (LOX IMVI melanoma) greater than 100000 nM, a GI50 (M14 melanoma) of 869 nM and a TGI (M14 melanoma) greater than 100000 nM. It also gave a GI50 (MALME-3M melanoma) of 1120 nM, a TGI (MALME-3M melanoma) greater than 100000 nM and a GI50 (MCF7 breast) of 228 nM. The TGI (MCF7 breast) was greater than 100000 nM, the GI50 (MDA-MB-231 breast) was 719 nM and the TGI (MDA-MB-231 breast) was greater than 100000 nM. The GI50 (MDA-MB-435) was 804 nM, the TGI (MDA-MB-435) was greater than 100000 nM and the GI50 (MOLT-4 leukemia) was 465 nM. For the same compound, the TGI (MOLT-4 leukemia) was greater than 100000 nM, the GI50 (NCI-H226 lung) was 896 nM and the TGI (NCI-H226 lung) was greater than 100000 nM. For the same compound, the GI50 (NCI-H23 lung) was 2680 nM, the TGI (NCI-H23 lung) was greater than 100000 nM and the GI50 (NCI-H460 lung) was 463 nM. It also gave a TGI (NCI-H460 lung) greater than 100000 nM, a GI50 (NCI-H522 lung) of 2230 nM and a TGI (NCI-H522 lung) greater than 100000 nM. The GI50 (OVCAR-3 ovarian) was 471 nM, the TGI (OVCAR-3 ovarian) was greater than 100000 nM and the GI50 (OVCAR-4 ovarian) was 747 nM. It also gave a TGI (OVCAR-4 ovarian) greater than 100000 nM, a GI50 (OVCAR-5 ovarian) of 396 nM and a TGI (OVCAR-5 ovarian) greater than 100000 nM. The GI50 (OVCAR-8 ovarian) was 966 nM, the TGI (OVCAR-8 ovarian) was greater than 100000 nM and the GI50 (PC-3 prostate) was 458 nM. For the same compound, the TGI (PC-3 prostate) was greater than 100000 nM, the GI50 (RPMI-8226 leukemia) was 759 nM and the TGI (RPMI-8226 leukemia) was greater than 100000 nM. The GI50 (RXF 393 renal) was 229 nM, the TGI (RXF 393 renal) was 970 nM and the GI50 (SF-268 CNS) was 538 nM. The TGI (SF-268 CNS) was greater than 100000 nM, the GI50 (SF-295 CNS) was 632 nM and the TGI (SF-295 CNS) was greater than 100000 nM. The GI50 (SF-539 CNS) was 645 nM, the TGI (SF-539 CNS) was greater than 100000 nM and the GI50 (SK-MEL-2 melanoma) was 7000 nM. For the same compound, the TGI (SK-MEL-2 melanoma) was greater than 100000 nM, the GI50 (SK-MEL-28 melanoma) was 770 nM and the TGI (SK-MEL-28 melanoma) was greater than 100000 nM. The GI50 (SN12C renal) was 407 nM, the TGI (SN12C renal) was greater than 100000 nM and the GI50 (SNB-19 CNS) was 1460 nM. The TGI (SNB-19 CNS) was greater than 100000 nM, the GI50 (SNB-75 CNS) was 80.4 nM and the TGI (SNB-75 CNS) was 517 nM. The GI50 (SR leukemia) was 722 nM, the TGI (SR leukemia) was greater than 100000 nM and the GI50 (T-47D breast) was 42.4 nM. For the same compound, the TGI (T-47D breast) was 693 nM, the GI50 (TK-10 renal) was 835 nM and the TGI (TK-10 renal) was greater than 100000 nM. For the same compound, the GI50 (U251 CNS) was 9790 nM, the TGI (U251 CNS) was greater than 100000 nM and the GI50 (UACC-257 melanoma) was greater than 100000 nM. For the same compound, the TGI (UACC-257 melanoma) was greater than 100000 nM, the GI50 (UACC-62 melanoma) was 460 nM and the TGI (UACC-62 melanoma) was greater than 100000 nM. The GI50 (UO-31 renal) was 151 nM and the TGI (UO-31 renal) was greater than 100000 nM.

From PubChem BioAssay (NCI)
